Assays:
Human GPR40 [1] = molecular target: T1, Human GPR40 (Homo sapiens, UniProt O14842); assay: Inositol Phosphate Turnover (IP1) Assay 2; type: cell-based; set-up: expressed in transfected cells; host or cells: HEK cells stably expressing the aequorin reporter; conditions: HEK cells stably expressing human GPR40, 384-well, CisBio IP-One kit
Method: The assay was performed in 384-well format. HEK cells stably expressing human GPR40 were plated at 15,000 cells per well in growth medium (DMEM/10% fetal calf serum). Cell plates were then incubated 16 hours at 37 degrees in a 5% CO2 incubator.
Measurement of Inositol Phosphate Turnover (IP1) was performed using the CisBio IP-One kit (Part number 62IPAPEB). After the 16 hour incubation, the cells were washed with HEPES buffer and 10 ul of stimulation buffer (prepared as described in the kit) was added to each well. In a separate plate, compounds were diluted in DMSO (400-fold over the final concentration in the assay well) and 25 nl was acoustically transferred to the appropriate well in the assay cell plate. The plates were then incubated for 60 minutes at 37 degrees. 10 ul of detection buffer (also prepared as described in the IP-One kit) was added to each well and the plates were incubated for 60 minutes in the dark. The plates were then read in a Perkin Elmer EnVision or equivalent reader able to measure FRET. Fluorescent ratio of emission at 665 and 620 nm was then converted to IP1 concentration by back calculating from an IP1 standard curve prepared at the time of the assay.

Human GPR40 [2] = molecular target: T1, Human GPR40; assay: Inositol Phosphate Turnover (IP1) Assay 1; type: cell-based; set-up: expressed in transfected cells; host or cells: HEK cells stably expressing the aequorin reporter; conditions: HEK cells stably expressing human GPR40, 96-well, 3H-inositol labeling, SPA beads
Method: Human and mouse GPR40 stable cell-lines were generated in CHO cells stably expressing NFAT BLA (Beta-lactamase). A human GPR40 stable cell-line was generated in HEK cells stably expressing the aequorin expressing reporter. The expression plasmids were transfected using lipofectamine (Life Technologies) following manufacturer's instructions. Stable cell-lines were generated following drug selection.
The assay was performed in 96-well format. HEK cells stably expressing human GPR40 were plated to be 60-80% confluent within 72 h. After 72 h, the plates were aspirated and the cells washed with inositol-free DMEM (ICN). The wash media was replaced with 150 μL of 3H-inositol labeling media (inositol-free media containing 0.4% human albumin or 0.4% mouse albumin, 1× pen/strep antibiotics, glutamine, 25 mM HEPES to which was added 3H-myo-inositol NEN #NET114A 1 mCi/mL, 25 Ci/mmol diluted 1:150 in loading media with a final specific radioactivity of 1 μCi/150 μL). Alternatively, the human and mouse albumin can be added after the overnight labeling step before the addition of LiCl.
The assay was typically run the next day after 18 h labeling. On the day of the assay, 5 μL of 300 mM LiCl was added to all wells and incubated at 37 degrees for 20 min 0.75 μL of 200× compounds were added and incubated with the cells for 60 min at 37 degrees. The media was then aspirated off and the assay terminated with the addition of 60 μL 10 mM formic acid. The cells were lysed for 60 min at room temperature. 15-30 μL of lysate was mixed with 70 μL/1 mg YSi SPA beads (Amersham) in clear bottom Isoplates. The plates were shaken for 2 h at room temperature. Beads were allowed to settle and the plates were counted in the Wallac Microbeta.

T1 sequence (O14842 whole entry): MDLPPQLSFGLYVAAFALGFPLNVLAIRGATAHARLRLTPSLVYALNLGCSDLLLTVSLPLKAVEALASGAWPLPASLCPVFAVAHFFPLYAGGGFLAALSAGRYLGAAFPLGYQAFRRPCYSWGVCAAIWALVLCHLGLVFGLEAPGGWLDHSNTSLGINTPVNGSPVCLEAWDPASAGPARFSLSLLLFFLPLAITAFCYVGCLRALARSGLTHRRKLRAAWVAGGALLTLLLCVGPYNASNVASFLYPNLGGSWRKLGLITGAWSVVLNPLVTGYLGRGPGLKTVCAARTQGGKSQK

Compound	EC50 (Human GPR40 [1])	EC50 (Human GPR40 [2])
Cc1nc(OCCC(C)(O)CO)ccc1-c1cc(COc2cc3c(cn2)[C@H]2[C@@H](C3)[C@@H]2C(=O)O)c(F)cc1C(F)(F)F (stereo partly drawn) [Example 20, (5aR,6S,6aS)-3-((5-(6-(3,4-dihydroxy-3-methyl-butoxy)-2-methylpyridin-3-yl)-2-fluoro-4-(tri-fluoro-methyl)benzyl)-oxy)-5,5a,6,6a-tetra-hydro-cyclopropa[4,5]-cyclopenta[1,2-c]-pyridine-6-carboxylic acid]	3.1 nM	
C[C@@](O)(CO)CCOc1ccc(-c2cc(COc3cc4c(cn3)[C@H]3[C@@H](C4)[C@@H]3C(=O)O)c(F)cc2F)c(Cl)c1 [Example 21, (5aR,6S,6aS)-3-((2′-chloro-4′-((S)-3,4-dihydroxy-3-methyl-butoxy)-4,6-di-fluoro-[1,1′-biphenyl]-3-yl)methoxy)-5,5a,6,6a-tetrahydrocyclopropa [4,5]cyclopenta[1,2-c] pyridine-6-carboxylic acid]	2.2 nM	
Cc1cc(CCC(C)(O)CO)cc(C)c1-c1cc(COc2cc3c(cn2)[C@H]2[C@@H](C3)[C@@H]2C(=O)O)c(F)cc1F (stereo partly drawn) [Example 23, (5aR,6S,6aS)-3-((4′-(3,4-dihydroxy-3-methylbutyl)-4,6-difluoro-2′,6′-dimethyl-[1,1′-biphenyl]-3-yl)methoxy)-5,5a,6,6a-tetrahydrocyclopropa[4,5]cyclopenta[1,2-c]pyridine-6-carboxylic acid]	5.2 nM	
Cc1cc(OCCC(C)(O)CO)cc(C)c1-c1cc(COc2cc3c(cn2)[C@H]2[C@@H](C3)[C@@H]2C(=O)O)c(F)cc1F (stereo partly drawn) [Example 19, (5aR,6S,6aS)-3-((4′-(3,4-dihydroxy-3-methyl-butoxy)-4,6-difluoro-2′,6′-dimethyl-[1,1′-biphenyl]-3-yl)methoxy)-5,5a,6,6a-tetrahydro-cyclopropa[4,5]-cyclopenta[1,2-c] pyridine-6-carboxylic acid]	1.6 nM	
Cc1cc(OCCC(C)(O)C(F)F)nc(C)c1-c1cc(COc2cc3c(cn2)C2[C@@H](C3)[C@@H]2C(=O)O)c(F)cc1F (stereo in doubt) [Example 17, (5aR,6S,6aR)-3-((5-(6-(4,4-difluoro-3-hydroxy-3-methyl-butoxy)-2,4-di-methylpyridin-3-yl)-2,4-difluorobenzyl)oxy)-5,5a,6,6a-tetra-hydrocyclopropa[4,5] cyclopenta[1,2-c] pyridine-6-carboxylic acid]	2.1 nM	
Cc1cc(OCC[C@@H](O)CO)cc(C)c1-c1cc(COc2cc3c(cn2)[C@H]2[C@@H](C3)[C@@H]2C(=O)O)c(F)cc1F [Example 25, (5aR,6S,6aS)-3-((4′-((R)-3,4-dihydroxy-butoxy)-4,6-difluoro-2′,6′-dimethyl-[1,1′-biphenyl]-3-yl)methoxy)-5,5a,6,6a-tetrahydrocyclo-propa[4,5]cyclopenta [1,2-c]pyridine-6-carboxylic acid]	3.8 nM	4.7 nM
Cc1cc(OCC[C@@H](O)CO)c(F)cc1-c1cc(COc2cc3c(cn2)[C@H]2[C@@H](C3)[C@@H]2C(=O)O)c(F)cc1Cl [Example 26, (5aR,6S,6aS)-3-((6-chloro-4′-((R)-3,4-dihydroxybutoxy)-4,5,-difluoro-2′-methyl-[1,1′-biphenyl]-3-yl)methoxy)-5,5a,6,6a-tetrahydrocyclo-propa[4,5]cyclopenta [1,2-c]pyridine-6-carboxylic acid]	0.7 nM	
Cc1cc(OCC[C@H](O)CO)cc(C)c1-c1cc(COc2cc3c(cn2)[C@H]2[C@@H](C3)[C@@H]2C(=O)O)c(F)cc1F [Example 24, Sodium (5aR,6S,6aS)-3-((4′-((S)-3,4-dihydroxybutoxy)-4,6-difluoro-2′,6′-dimethyl-[1,1′-biphenyl]-3-yl)methoxy)-5,5a,6,6a-tetrahydrocyclopropa[4,5]cyclopenta[1,2-c]pyridine-6-carboxylate]	1.3 nM	4.6 nM
Cc1cc(OCC(C(C)(C)O)C(C)(C)O)cc(C)c1-c1cc(COc2cc3c(cn2)[C@H]2[C@@H](C3)[C@@H]2C(=O)O)c(F)cc1F [Example 22, (5aR,6S,6aS)-3-((4,6-difluoro-4′-(3-hydroxy-2-(2-hydroxypropan-2-yl)-3-methylbutoxy)-2′,6′-dimethyl-[1,1′-biphenyl]-3-yl)methoxy)-5,5a,6,6a-tetrahydrocyclopropa[4,5]cyclopenta[1,2-c]pyridine-6-carboxylic acid]	3.1 nM	

Reference: patent US9932311B2, “Antidiabetic tricyclic compounds” (Merck Sharp & Dohme Corp., priority 2013, dated 2018)
